Values of other authors in patent US20200046664A1, “METHOD FOR PREPARATION OF LIQUID ORAL COMPOSITION OF L-THYROXIN” (FTF PHARMA PRIVATE LIMITED, priority 2016, published 2020).

Compound: N[C@@H](Cc1cc(I)c(Oc2cc(I)c(O)c(I)c2)c(I)c1)C(=O)[O-].[Na+] [Levothyroxine sodium, Sodium (2S)-2-amino-3-[4-(4-hydroxy-3,5-diiodophenoxy)-3,5-diiodophenyl]propanoate]
- Solubility in ethanol (96 percent) (ethanol (96 percent)): slightly soluble
- Solubility in water (water): very slightly soluble
